Experimental data taken from PubChem BioAssay AID330 (DTP/NCI, 2004).
Several values for one entry are separate records, joined by “and”; a condition that tells them apart may be missing. Equal entries are not always repeated. Inconclusive results and toxic doses are left out. How the source made its calls: active means survival T/C of 150% or more; inactive means T/C below 125% in these data.

Test system: P388 leukemia ip, CD2F1 mice, survival T/C
Assay: NCI In Vivo Anticancer Drug Screen. Data for tumor model P388 Leukemia (intraperitoneal) in CD2F1 (CDF1) mice
Details: endpoint: median survival time, higher = longer survival
In short: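 Mice carrying the transplanted tumor received test compound or vehicle. Survival was recorded in each group, and the value is the treated-group measurement divided by that of the vehicle-treated control group.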

[1] = dose: 60.0 mg/kg/injection, schedule: Q01DX005 (ip), vehicle: saline with Tween-80
[2] = dose: 120.0 mg/kg/injection, schedule: Q01DX005 (ip), vehicle: saline with Tween-80
[3] = dose: 25.0 mg/kg/injection, schedule: Q01DX005 (ip), vehicle: saline with Tween-80
[4] = dose: 50.0 mg/kg/injection, schedule: Q01DX005 (ip), vehicle: saline with Tween-80
[5] = dose: 100.0 mg/kg/injection, schedule: Q01DX005 (ip), vehicle: saline with Tween-80
[6] = dose: 50.0 mg/kg/injection, schedule: Q01DX005 (ip), vehicle: Klucel (hydroxypropylcellulose) (HPC)
[7] = dose: 100.0 mg/kg/injection, schedule: Q01DX005 (ip), vehicle: Klucel (hydroxypropylcellulose) (HPC)
[8] = dose: 200.0 mg/kg/injection, schedule: Q01DX005 (ip), vehicle: Klucel (hydroxypropylcellulose) (HPC)
[9] = dose: 50.0 mg/kg/injection, schedule: Q01DX009 (ip), vehicle: saline with Tween-80
[10] = dose: 100.0 mg/kg/injection, schedule: Q01DX009 (ip), vehicle: saline with Tween-80
[11] = dose: 200.0 mg/kg/injection, schedule: Q01DX009 (ip), vehicle: saline with Tween-80
[12] = dose: 25.0 mg/kg/injection, schedule: Q01DX009 (ip), vehicle: saline with Tween-80
[13] = dose: 50.0 mg/kg/injection, schedule: Q01DX009 (ip), vehicle: Klucel (hydroxypropylcellulose) (HPC)
[14] = dose: 100.0 mg/kg/injection, schedule: Q01DX009 (ip), vehicle: Klucel (hydroxypropylcellulose) (HPC)
[15] = dose: 200.0 mg/kg/injection, schedule: Q01DX009 (ip), vehicle: Klucel (hydroxypropylcellulose) (HPC)
[16] = dose: 200.0 mg/kg/injection, schedule: Q01DX005 (ip), vehicle: saline with Tween-80

Measured: T/C

CCCCC/C([O-])=C1/C(=O)N(c2ccccc2)N=C1C.CCCCC/C([O-])=C1/C(=O)N(c2ccccc2)N=C1C.[Cu+2]
inactive: [1] 96 % of control | [2] 101 % of control

COc1cccc2c1C(=O)c1c(O)c3c(c(O)c1C2=O)CC(O)(C(C)=O)CC3OC1CC(NCC2(O)OCC(O)C(O)C2O)C(O)C(C)O1 (stereo not drawn)
inactive: dose: 3.13 mg/kg/injection, schedule: Q04DX003 (ip), vehicle: water 119 % of control | dose: 6.25 mg/kg/injection, schedule: Q04DX003 (ip), vehicle: water 117 % of control | dose: 12.5 mg/kg/injection, schedule: Q04DX003 (ip), vehicle: water 119 % of control | dose: 25.0 mg/kg/injection, schedule: Q04DX003 (ip), vehicle: water 118 % of control | dose: 200.0 mg/kg/injection, schedule: Q04DX003 (ip), vehicle: water 99 % of control

OC1CC2CC1CC2c1cnc[nH]1 (stereo not drawn)
inactive: dose: 12.5 mg/kg/injection, schedule: Q04DX002 (ip), vehicle: saline with Tween-80 100 % of control | dose: 25.0 mg/kg/injection, schedule: Q04DX002 (ip), vehicle: saline with Tween-80 100 % of control | dose: 50.0 mg/kg/injection, schedule: Q04DX002 (ip), vehicle: saline with Tween-80 100 % of control | dose: 100.0 mg/kg/injection, schedule: Q04DX002 (ip), vehicle: saline with Tween-80 100 % of control

CC(CN(C)C)C(/C=C/c1ccc(F)cc1)=N\Nc1ccccc1 (stereo not drawn)
inactive: [1] 102 % of control | [2] 122 % of control

CN(C)C(=S)n1c(=S)nc(N(C)C)sc1=S
inactive: dose: 12.5 mg/kg/injection, schedule: Q01DX005 (ip), vehicle: saline with Tween-80 103 % of control | [3] 108 % of control | [4] 108 % of control and 113 % of control | [5] 109 % of control

CC1(C)N=C(N)N=C(N)N1c1ccc(OCCNC(=O)Nc2ccc(S(=O)(=O)F)cc2)c(Cl)c1
inactive: dose: 50.0 mg/kg/injection, schedule: Q04DX003 (ip), vehicle: saline 120 % of control

C/C(=N/NC(=O)c1ccccc1)c1ccc(Cl)cc1Cl
inactive: dose: 12.5 mg/kg/injection, schedule: Q01DX009 (ip), vehicle: Klucel (hydroxypropylcellulose) (HPC) 90 % of control

CC(=O)Oc1ccc2c(c1)C(=O)c1nc(C)c(C)nc1C2=O
inactive: [6] 102 % of control | [7] 102 % of control | [8] 109 % of control

CCCc1c(C)nc2scc(-c3ccc(Cl)cc3)n2c1=O
inactive: [9] 96 % of control | [10] 98 % of control | [11] 96 % of control

O=C1OC(=Nc2cccc([N+](=O)[O-])c2)c2ccccc21
inactive: [12] 99 % of control and 103 % of control | [9] 100 % of control and 95 % of control | [10] 99 % of control and 95 % of control | [11] 88 % of control and 95 % of control

O=C([Se][Se]C(=O)c1ccc(Cl)cc1)c1ccc(Cl)cc1
inactive: dose: 12.5 mg/kg/injection, schedule: Q01DX009 (ip), vehicle: saline with Tween-80 99 % of control | [12] 100 % of control | [9] 100 % of control | [10] 98 % of control

CC(=O)OCC1OC(n2ccc(=S)[nH]c2=O)C(OC(C)=O)C1OC(C)=O (stereo not drawn)
inactive: dose: 50.0 mg/kg/injection, schedule: Q04DX003 (ip), vehicle: saline with Tween-80 93 % of control | dose: 100.0 mg/kg/injection, schedule: Q04DX003 (ip), vehicle: saline with Tween-80 100 % of control | dose: 200.0 mg/kg/injection, schedule: Q04DX003 (ip), vehicle: saline with Tween-80 92 % of control | dose: 400.0 mg/kg/injection, schedule: Q04DX003 (ip), vehicle: saline with Tween-80 102 % of control

COc1cc2cnc(-c3ccccn3)c(O)c2cc1OC
inactive: dose: 50.0 mg/kg/injection, schedule: Q01DX009 (ip), vehicle: saline 100 % of control | dose: 100.0 mg/kg/injection, schedule: Q01DX009 (ip), vehicle: saline 90 % of control | dose: 200.0 mg/kg/injection, schedule: Q01DX009 (ip), vehicle: saline 94 % of control

O=c1c2ccccc2c(=O)n2c(=O)c3ccccc3c(=O)n12
inactive: [13] 100 % of control | [14] 100 % of control | [15] 104 % of control | dose: 400.0 mg/kg/injection, schedule: Q01DX009 (ip), vehicle: Klucel (hydroxypropylcellulose) (HPC) 103 % of control

S=C(S)N1CCCCC1
inactive: dose: 3.13 mg/kg/injection, schedule: Q01DX009 (ip), vehicle: saline 88 % of control | dose: 6.25 mg/kg/injection, schedule: Q01DX009 (ip), vehicle: saline 91 % of control | dose: 12.5 mg/kg/injection, schedule: Q01DX009 (ip), vehicle: saline 86 % of control | [12] 91 % of control | dose: 25.0 mg/kg/injection, schedule: Q01DX009 (ip), vehicle: saline 86 % of control

N#CC(C(=O)CCCC(=O)Nc1cccc([N+](=O)[O-])c1)c1c(Cl)cccc1Cl (stereo not drawn)
inactive: [4] 111 % of control | [5] 111 % of control | [16] 105 % of control

CCC(=O)C(C)C1(C(=O)OC)NC(=S)NC(=O)C1C#N (stereo not drawn)
inactive: dose: 7.5 mg/kg/injection, schedule: Q01DX005 (ip), vehicle: saline with Tween-80 102 % of control | dose: 15.0 mg/kg/injection, schedule: Q01DX005 (ip), vehicle: saline with Tween-80 99 % of control | dose: 30.0 mg/kg/injection, schedule: Q01DX005 (ip), vehicle: saline with Tween-80 103 % of control

Cc1cc(NCCN(C(C)C)C(C)C)nc(/N=C(\N)Nc2ccc(Cl)c(C(F)(F)F)c2)n1
inactive: dose: 10.0 mg/kg/injection, schedule: Q04DX003 (ip), vehicle: Klucel (hydroxypropylcellulose) (HPC) 107 % of control and 123 % of control | dose: 20.0 mg/kg/injection, schedule: Q04DX003 (ip), vehicle: Klucel (hydroxypropylcellulose) (HPC) 123 % of control

CCCCOc1ccc(-c2cnc(-c3ccc(-c4ncc(-c5ccc(OCCCC)cc5)o4)cc3)o2)cc1
inactive: dose: 3.0 mg/kg/injection, schedule: Q01DX005 (ip), vehicle: saline with Tween-80 91 % of control | dose: 6.0 mg/kg/injection, schedule: Q01DX005 (ip), vehicle: saline with Tween-80 88 % of control | [3] 89 % of control | [4] 87 % of control and 94 % of control | [5] 99 % of control | [16] 108 % of control

C[N+](C)(CCCCCCOc1c(Br)cc(Br)cc1Br)Cc1ccc(Br)o1
inactive: dose: 1.56 mg/kg/injection, schedule: Q01DX009 (ip), vehicle: Klucel (hydroxypropylcellulose) (HPC) 104 % of control | dose: 3.12 mg/kg/injection, schedule: Q01DX009 (ip), vehicle: Klucel (hydroxypropylcellulose) (HPC) 113 % of control | dose: 6.25 mg/kg/injection, schedule: Q01DX009 (ip), vehicle: Klucel (hydroxypropylcellulose) (HPC) 93 % of control

CCCCCCN(CCCCCC)CC(O)c1ccc(Cl)c2ccccc12 (stereo not drawn)
inactive: [4] 115 % of control | [5] 101 % of control | [16] 92 % of control

CCCCCCC1NC(CCCCC)N2C(CCCCC)N12 (stereo not drawn)
inactive: dose: 50.0 mg/kg/injection, schedule: Q01DX001 (ip), vehicle: Klucel (hydroxypropylcellulose) (HPC) 101 % of control | dose: 100.0 mg/kg/injection, schedule: Q01DX001 (ip), vehicle: Klucel (hydroxypropylcellulose) (HPC) 103 % of control | dose: 200.0 mg/kg/injection, schedule: Q01DX001 (ip), vehicle: Klucel (hydroxypropylcellulose) (HPC) 95 % of control

CCCCCCCCCCOC(=O)c1ccccc1
inactive: [13] 98 % of control | [14] 93 % of control | [15] 98 % of control

CSCCC(NC(=O)C(Cl)Cl)C(=O)O (stereo not drawn)
inactive: [6] 100 % of control | [7] 96 % of control | [8] 100 % of control
